Measurements as given in ChEMBL document CHEMBL1121514, “6-(Phenylthio)-substituted 2,3,4,5-tetrahydro-1H-3-benzazepines, a novel class of dopamine receptor antagonists and neuroleptics” (J Med Chem, 1980).

Columns and labels:
Adenylate cyclase [1] = test: Inhibitory activity against Dopamine sensitive adenylate cyclase in rats
Rattus norvegicus [2] = test: Effective Dose for avoidance acquisition in naive rats when administered intraperitoneal; type: functional; settings: ip
Rattus norvegicus [3] = test: Effective Dose for catalepsy production in naive rats when administered intraperitoneal; type: functional; settings: ip
Adenylate cyclase [4] = test: Inhibitory concentration against Dopamine sensitive adenylate cyclase in rats; type: functional
Canis lupus familiaris [5] = test: % Change in renal vascular resistance in dogs when administered at dose 3 ug/kg intravenously
Canis lupus familiaris [6] = test: % Change in renal vascular resistance in dogs when administered at dose 15 ug/kg intravenously

Row | Molecule | Ki (Adenylate cyclase [1]) | ED50 (Rattus norvegicus [2]) | ED50 (Rattus norvegicus [3]) | IC50 (Adenylate cyclase [4]) | Change (Canis lupus familiaris [5]) | Change (Canis lupus familiaris [6])
1 | CN1CCc2c(Cl)c(O)c(O)c(Sc3ccccc3)c2CC1 | 33 nM | 0.08 mg/kg | 3 mg/kg | 360 nM |  | 
2 | Br.Oc1cc2c(c(Sc3ccccc3)c1O)CCNCC2 | 250 nM | 4.9 mg/kg | 64.6 mg/kg | 2700 nM |  | 
3 | Br.CN1CCc2cc(O)c(O)c(Sc3ccccc3)c2CC1 | 22 nM | 0.5 mg/kg | 5.6 mg/kg | 240 nM |  | 
4 | CN(C)CCCN1c2ccccc2Sc2ccc(Cl)cc21 [CHLORPROMAZINE] | 118 nM | 1.5 mg/kg | 4.2 mg/kg | 1300 nM |  | 
5 | NCCc1ccc(O)c(O)c1 [DOPAMINE] |  |  |  |  | 8% | 
6 | H-RPPGFSPFR-OH [BRADYKININ] |  |  |  |  | -19% | -37%
